# Experimental data: patent publication US20110071158A1, “NEW COMPOUNDS” (BOEHRINGER INGELHEIM INTERNATIONAL GMBH, priority 2009, published 2011)
# Molecular target: T1, PTK2 enzyme (Homo sapiens, UniProt Q05397)
# T1 construct: purchased Invitrogen PV3832
# Assay: PTK2 enzyme test, Assay 1 (DELFIA, poly-Glu-Tyr substrate, antibody PT60)
# Type: biochemical
# Details: Assay 1 (values without *); 1 h pre-incubation, 2% DMSO
# Method: This test uses active PTK2 enzyme (Invitrogen Code PV3832) and poly-Glu-Tyr (4:1, Sigma P-0275) as the kinase substrate. The kinase activity is detected through the phosphorylation of the substrate in a DELFIA™ assay. The phosphorylated substrate is detected with the europium-labelled phosphotyrosine antibody PT60 (Perkin Elmer, No.: AD00400).
# In order to determine concentration-activity curves with PTK2-inhibitors the compounds are serially diluted in 10% DMSO/H2O and 10 μL of each dilution are placed in each well of a 96-well microtitre plate (clear plate with a U-shaped base, Greiner No. 650101) (the inhibitors are tested in duplicates) and mixed with 10 μL/well of PTK2 kinase (0.01 μg/well). PTK2 kinase has been correspondingly diluted beforehand with kinase dilution buffer (20 mM TRIS/HCl pH 7.5, 0.1 mM EDTA, 0.1 mM EGTA, 0.286 mM sodium orthovanadate, 10% glycerol with the addition of freshly prepared BSA (fraction V, 1 mg/mL) and DTT (1 mM)). The test compound and the PTK2 kinase are pre-incubated for 1 h at RT and shaken at 500 revolutions per min. The reaction is started by the addition of 10 μL/well poly (Glu,Tyr) substrate (25 μg/well poly (Glu, Tyr), 0.05 μg/well biotinylated poly (Glu,Tyr) dissolved in 250 mM TRIS/HCl pH 7.5, 9 mM DTT)—the final concentration of DMSO is 2%. Then 20 μL of ATP Mix (30 mM TRIS/HCl pH 7.5, 0.02% Brij, 0.2 mM sodium orthovanadate, 10 mM magnesium acetate, 0.1 mM EGTA, 1× phosphatase inhibitor cocktail 1 (Sigma, No.: P2850), 50 μM ATP (Sigma, No.: A3377; 15 mM stock solution)) are added. After 1 h of kinase reaction (the plates are shaken at 500 rpm), the reaction is stopped by the addition of 12 μL/well 100 mM EDTA, pH 8.0 and shaken for a further 5 min at RT (500 rpm). 55 μL of the reaction mixture are transferred into a streptavidin plate (Strepta Well High Bind (transparent, 96-well) made by Roche, No.: 11989685001) and incubated for 1 h at RT (shaking at 500 rpm). Then the microtitre plate is washed three times with 200 μL/well D-PBS (Invitrogen, No. 14190). 100 μL of a solution containing DELFIA Eu-N1 Anti-Phosphotyrosine PT60 antibody (Perkin Elmer, No.: AD0040, diluted 1:2000 in DELFIA test buffer (Perkin Elmer, No.: 1244-111)) is then added and the mixture is incubated for 1 h at RT (shaking at 500 rpm). Then the plate is washed three times with 200 μL/well DELFIA washing buffer (Perkin Elmer, No.: 1244-114), 200 μL/well strengthening solution (Perkin Elmer, No.: 1244-105) are added and the mixture is incubated for 10 min at RT (shaking at 300 rpm).
# The time-delayed europium fluorescence is then measured in a microtitre plate reader (VICTOR^3, Perkin Elmer). […] Wells that contain test buffer instead of enzyme are used as a control of the background kinase activity.
# The IC50 values are determined from analyses of the concentration activity by iterative calculation with the aid of a sigmoid curve analysis algorithm (FIFTY, based on Graph PAD Prism Version 3.03) with a variable Hill coefficient.
# T1 sequence (Q05397 whole entry): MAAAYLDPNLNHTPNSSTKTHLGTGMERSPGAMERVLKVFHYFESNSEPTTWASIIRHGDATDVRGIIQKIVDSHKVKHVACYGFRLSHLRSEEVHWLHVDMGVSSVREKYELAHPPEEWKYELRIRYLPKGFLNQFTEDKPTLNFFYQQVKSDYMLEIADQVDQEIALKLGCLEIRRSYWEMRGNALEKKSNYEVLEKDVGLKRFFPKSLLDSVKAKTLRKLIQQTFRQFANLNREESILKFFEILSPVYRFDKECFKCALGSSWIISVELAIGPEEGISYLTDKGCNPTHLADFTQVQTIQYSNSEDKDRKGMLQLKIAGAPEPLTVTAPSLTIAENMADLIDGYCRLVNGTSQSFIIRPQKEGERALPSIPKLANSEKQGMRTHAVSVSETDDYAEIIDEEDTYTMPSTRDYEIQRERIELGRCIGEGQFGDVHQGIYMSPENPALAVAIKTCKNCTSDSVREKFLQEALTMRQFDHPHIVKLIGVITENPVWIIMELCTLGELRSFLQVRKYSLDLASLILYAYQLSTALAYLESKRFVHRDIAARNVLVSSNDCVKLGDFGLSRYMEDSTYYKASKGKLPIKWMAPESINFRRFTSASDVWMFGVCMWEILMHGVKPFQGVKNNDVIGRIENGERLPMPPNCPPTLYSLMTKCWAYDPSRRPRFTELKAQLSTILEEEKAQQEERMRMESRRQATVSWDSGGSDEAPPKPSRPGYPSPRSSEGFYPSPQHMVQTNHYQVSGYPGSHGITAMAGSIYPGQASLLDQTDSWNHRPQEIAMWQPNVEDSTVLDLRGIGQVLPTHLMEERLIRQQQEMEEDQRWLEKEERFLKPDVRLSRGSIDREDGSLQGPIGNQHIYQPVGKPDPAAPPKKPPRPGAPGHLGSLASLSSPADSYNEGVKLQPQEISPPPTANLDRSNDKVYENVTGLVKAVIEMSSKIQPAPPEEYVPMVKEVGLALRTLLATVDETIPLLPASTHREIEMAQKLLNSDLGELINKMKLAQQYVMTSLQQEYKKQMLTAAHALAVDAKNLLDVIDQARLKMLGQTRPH
row,Structure (SMILES),IC50 [nM]
1,COc1cc(C(=O)NC2CCN(C)CC2)ccc1Nc1ncc(C(F)(F)F)c(N[C@@H]2CCCC[C@H]2N(C)C(=O)C(C)C)n1 [Example I-80],9
2,COc1cc(C(=O)NCCN(C)C)ccc1Nc1ncc(C(F)(F)F)c(N[C@@H]2CCCC[C@H]2N(C)C(C)=O)n1 [Example I-73],0.95
3,COc1cc(C(=O)NC2CCN(C3CC3)CC2)ccc1Nc1ncc(Br)c(N[C@@H]2CCCC[C@H]2NC(C)=O)n1 [Example I-55],2
4,COc1cc(C(=O)NC2CCN(C3CC3)CC2)ccc1Nc1ncc(Cl)c(N[C@@H]2CCCC[C@H]2NC(C)=O)n1 [Example I-63],3
5,CCN1CCC(NC(=O)c2cc(OC)c(Nc3ncc(Cl)c(N[C@@H]4CCCC[C@H]4N(C)S(C)(=O)=O)n3)cc2F)CC1 [Example I-169],4
6,CON[C@H]1CCCC[C@H]1Nc1nc(Nc2ccc(C(=O)NC3CCN(C)CC3)cc2OC)ncc1C(F)(F)F [Example I-113],5
7,COc1cc(CN2CCOCC2)ccc1Nc1ncc(C(F)(F)F)c(N[C@@H]2CCCC[C@H]2NC(C)=O)n1 [Example I-115],1
8,COc1cc(N2CCN(C)CC2)ccc1Nc1ncc(C(F)(F)F)c(N[C@@H]2CCCC[C@H]2NC(C)=O)n1 [Example I-29],1
9,COc1cc(C(=O)NC2CCN(C)CC2)ccc1Nc1ncc(Br)c(N[C@@H]2CCCC[C@H]2NC(C)=O)n1 [Example I-50],1
10,CCN(CC)C(=O)CN[C@@H]1CCCC[C@H]1Nc1nc(Nc2ccc(C(=O)NC3CCN(C)CC3)cc2OC)ncc1C(F)(F)F [Example I-24],24
11,COc1cc(C(=O)N[C@H]2CCCN(C)C2)ccc1Nc1ncc(C(F)(F)F)c(N[C@@H]2CCCC[C@H]2N(C)C(C)=O)n1 [Example I-107],1
12,CNC(=O)c1ccc(Nc2ncc(Br)c(N[C@@H]3CCCC[C@H]3NC(C)=O)n2)c(OC)c1 [Example I-46],2
13,COc1cc(C(=O)NC2CCN(C)CC2)ccc1Nc1ncc(C(F)(F)F)c(N[C@@H]2CCCC[C@H]2NC(=O)NC(C)(C)C)n1 [Example I-18],46
14,COc1cc(C(=O)NCCN(C)C)ccc1Nc1ncc(Cl)c(N[C@@H]2CCCC[C@H]2NC(C)=O)n1 [Example I-59],1
15,COc1cc(C(=O)NC2CCN(C)CC2)ccc1Nc1ncc(C(F)(F)F)c(N[C@@H]2CCCC[C@H]2N(C)C(C)=O)n1 [Example I-82],0.98
16,COc1cc(C(=O)NCCCN(C)C)ccc1Nc1ncc(C(F)(F)F)c(N[C@@H]2CCCC[C@H]2N(C)C(C)=O)n1 [Example I-112],1
17,CC(=O)Nc1ccc(Nc2ncc(C(F)(F)F)c(N[C@@H]3CCCC[C@H]3N(C)S(C)(=O)=O)n2)cc1Cl [Example I-187],6
18,COc1ccc(Nc2ncc(C(F)(F)F)c(N[C@@H]3CCCC[C@H]3NC(=O)CC(C)C)n2)c(OC)c1 [Example I-70],440
19,COc1cc(C(=O)NC2CCCN(C)C2)ccc1Nc1ncc(C(F)(F)F)c(N[C@@H]2CCCC[C@H]2NC(C)=O)n1 (stereo partly shown) [Example I-10],3
20,COc1cc(C(=O)NC2CCC(N(C)C)CC2)ccc1Nc1ncc(C(F)(F)F)c(N[C@@H]2CCCC[C@H]2N(C)C(C)=O)n1 (stereo partly shown) [Example I-108],1
21,COc1cc(C(=O)NCCN(C)C)c(Cl)cc1Nc1ncc(Cl)c(N[C@@H]2CCCC[C@H]2N(C)S(C)(=O)=O)n1 [Example I-171],2
22,COc1cc(C(=O)N(C)C)ccc1Nc1ncc(C(F)(F)F)c(N[C@@H]2CCCC[C@H]2NC(C)=O)n1 [Example I-13],18
23,CCS(=O)(=O)N(C)[C@@H]1CCCC[C@H]1Nc1nc(Nc2ccc(C(=O)NCCN(C)C)cc2OC)ncc1C(F)(F)F [Example I-156],2

row,Structure (SMILES),IC50 [nM]
1,CCN([C@@H]1CCCC[C@H]1Nc1nc(Nc2ccc(C(=O)NC3CCCN(C)C3)cc2OC)ncc1C(F)(F)F)S(C)(=O)=O (stereo partly shown) [Example I-149],2
2,COc1cc(C(=O)NC2CCN(C)CC2)c(Cl)cc1Nc1ncc(Cl)c(N[C@@H]2CCCC[C@H]2N(C)S(C)(=O)=O)n1 [Example I-168],3
3,"COc1ccccc1Nc1ncc(Cl)c(N[C@@H]2CCCC[C@H]2NC(C)=O)n1 [Example I-4, N-{(1R,2R)-2-[5-chloro-2-(2-methoxy-phenylamino)-pyrimidin-4-ylamino]-cyclohexyl}-acetamide]",9
4,COc1cc(C(=O)NC2CCN(C)CC2)ccc1Nc1ncc(C(F)(F)F)c(N[C@@H]2CCCC[C@H]2NC(=O)C2CCCC2)n1 [Example I-22],15
5,CCN1CCC(NC(=O)c2cc(OC)c(Nc3ncc(C(F)(F)F)c(N[C@@H]4CCCC[C@H]4N(C)C(C)=O)n3)cc2F)CC1 [Example I-161],1
6,COc1cc(C(=O)NC2CCN(C)CC2)c(F)cc1Nc1ncc(C(F)(F)F)c(N[C@@H]2CCCC[C@H]2NS(C)(=O)=O)n1 [Example I-141],1
7,COc1cc(C(=O)NC2CCN(C)CC2)ccc1Nc1ncc(C(F)(F)F)c(N[C@@H]2CCCC[C@H]2NC(=O)CN(C)C)n1 [Example I-17],15
8,COc1cc(N2CCN(C)CC2)ccc1Nc1ncc(C(F)(F)F)c(N[C@@H]2CCCC[C@H]2N(C)S(C)(=O)=O)n1 [Example I-143],0.94
9,COCCNC(=O)c1ccc(Nc2ncc(C(F)(F)F)c(N[C@@H]3CCCC[C@H]3N(C)C(C)=O)n2)c(OC)c1 [Example I-110],2
10,COc1cc(C(=O)NC2CCOCC2)ccc1Nc1ncc(Br)c(N[C@@H]2CCCC[C@H]2NC(C)=O)n1 [Example I-44],2
11,COc1cc(C(=O)NC2CCN(C)CC2)ccc1Nc1ncc(C(F)(F)F)c(N[C@@H]2CCCC[C@H]2N2CCCC2=O)n1 [Example I-97],2
12,CCNC(=O)c1ccc(Nc2ncc(Cl)c(N[C@@H]3CCCC[C@H]3NC(C)=O)n2)c(OC)c1 [Example I-58],3
13,COc1cc(Nc2ncc(Cl)c(N[C@@H]3CCCC[C@H]3NC(C)=O)n2)cc(OC)c1OC [Example I-190],13
14,CNC(=O)c1ccc(Nc2ncc(C(F)(F)F)c(N[C@@H]3CCCC[C@H]3NC(C)=O)n2)c(OC)c1 [Example I-39],2
15,COc1cc(C(=O)NC2CCN(C)CC2)c(F)cc1Nc1ncc(C(F)(F)F)c(N[C@@H]2CCCC[C@H]2NCC(=O)N(C)OC)n1 [Example I-27],6
16,COc1cc(C(=O)NC2CCN(C(C)C)CC2)ccc1Nc1ncc(C(F)(F)F)c(N[C@@H]2CCCC[C@H]2N(C)C(C)=O)n1 [Example I-109],1
17,COc1cc(C(=O)NC2CCCN(C)C2)ccc1Nc1ncc(C(F)(F)F)c(N[C@H]2CCCC[C@@H]2NC(C)=O)n1 (stereo partly shown) [Example I-37],400
18,CCNC(=O)N[C@@H]1CCCC[C@H]1Nc1nc(Nc2ccc(C(=O)NC3CCN(C)CC3)cc2OC)ncc1C(F)(F)F [Example I-15],3
19,CNCc1ccc(Nc2ncc(C(F)(F)F)c(N[C@@H]3CCCC[C@H]3NC(=O)C3CCC3)n2)c(OC)c1 [Example I-75],3
20,COc1cc(C(=O)NC2CCN(C)CC2)ccc1Nc1ncc(C(F)(F)F)c(N[C@@H]2CCC[C@@H]2NC(C)=O)n1 [Example I-105],38
21,CCN1CCC(NC(=O)c2ccc(Nc3ncc(C(F)(F)F)c(N[C@H]4CCCC[C@@H]4NC(C)=O)n3)c(OC)c2)CC1 [Example I-38],400
22,COc1cc(C(=O)NC2CCN(C)CC2)ccc1Nc1ncc(Cl)c(N[C@@H]2CCCC[C@H]2N(C)S(C)(=O)=O)n1 [Example I-162],1
23,COc1ccc(Nc2ncc(Br)c(N[C@@H]3CCCC[C@H]3NC(C)=O)n2)c(OC)c1 [Example I-54],4
